Test results from ChEMBL document CHEMBL1145366, “A new class of histamine H3 receptor antagonists derived from ligand based design” (Bioorg Med Chem Lett, 2007).

Legend:
[1] = molecular target: T1, Histamine H3 receptor (Homo sapiens, UniProt Q9Y5N1); experiment: Displacement of [3H](R)-alpha-methylhistamine from human histamine H3 receptor at 10 uM
[2] = molecular target: T1, Histamine H3 receptor; experiment: Binding affinity to human histamine H3 receptor
[3] = molecular target: T1, Histamine H3 receptor; experiment: Inverse agonist activity at human histamine H3 receptor by GTP gammaS assay; assay type: functional
[4] = molecular target: Histamine H1 receptor (Homo sapiens) (UniProt P35367); experiment: Displacement of [3H]pyrilamine from human histamine H1 receptor at 10 uM
[5] = molecular target: Histamine H3 receptor (Rattus norvegicus, UniProt Q9QYN8); experiment: Binding affinity to rat histamine H3 receptor
[6] = molecular target: Histamine H2 receptor (Homo sapiens) (UniProt P25021); experiment: Displacement of [3H]tiotidine from human histamine H2 receptor at 10 uM
Histamine H2 receptor (Homo sapiens), sequence (P25021 whole entry): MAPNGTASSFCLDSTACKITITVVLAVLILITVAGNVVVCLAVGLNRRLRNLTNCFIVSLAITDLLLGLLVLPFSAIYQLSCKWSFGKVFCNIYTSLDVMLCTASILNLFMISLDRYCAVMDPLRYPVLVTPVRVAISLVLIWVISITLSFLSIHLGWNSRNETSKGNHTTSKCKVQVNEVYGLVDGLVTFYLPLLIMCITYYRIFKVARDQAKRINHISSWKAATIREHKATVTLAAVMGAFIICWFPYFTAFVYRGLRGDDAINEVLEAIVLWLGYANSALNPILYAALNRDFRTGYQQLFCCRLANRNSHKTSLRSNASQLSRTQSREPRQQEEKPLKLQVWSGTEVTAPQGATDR

Histamine H1 receptor (Homo sapiens), sequence (P35367 whole entry): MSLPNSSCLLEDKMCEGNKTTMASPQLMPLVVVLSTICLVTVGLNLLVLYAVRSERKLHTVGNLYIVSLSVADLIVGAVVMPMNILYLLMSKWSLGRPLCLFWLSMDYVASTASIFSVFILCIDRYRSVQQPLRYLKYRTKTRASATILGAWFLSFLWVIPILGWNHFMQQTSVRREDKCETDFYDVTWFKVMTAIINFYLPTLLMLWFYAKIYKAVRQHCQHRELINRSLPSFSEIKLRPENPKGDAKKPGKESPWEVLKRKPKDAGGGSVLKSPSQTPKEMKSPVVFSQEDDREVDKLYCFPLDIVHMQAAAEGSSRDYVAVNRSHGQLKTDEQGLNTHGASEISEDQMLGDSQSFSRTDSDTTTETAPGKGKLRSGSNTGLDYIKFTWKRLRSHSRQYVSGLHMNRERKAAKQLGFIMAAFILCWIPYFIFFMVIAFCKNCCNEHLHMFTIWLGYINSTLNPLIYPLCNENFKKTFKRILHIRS
T1 sequence (Q9Y5N1 whole entry): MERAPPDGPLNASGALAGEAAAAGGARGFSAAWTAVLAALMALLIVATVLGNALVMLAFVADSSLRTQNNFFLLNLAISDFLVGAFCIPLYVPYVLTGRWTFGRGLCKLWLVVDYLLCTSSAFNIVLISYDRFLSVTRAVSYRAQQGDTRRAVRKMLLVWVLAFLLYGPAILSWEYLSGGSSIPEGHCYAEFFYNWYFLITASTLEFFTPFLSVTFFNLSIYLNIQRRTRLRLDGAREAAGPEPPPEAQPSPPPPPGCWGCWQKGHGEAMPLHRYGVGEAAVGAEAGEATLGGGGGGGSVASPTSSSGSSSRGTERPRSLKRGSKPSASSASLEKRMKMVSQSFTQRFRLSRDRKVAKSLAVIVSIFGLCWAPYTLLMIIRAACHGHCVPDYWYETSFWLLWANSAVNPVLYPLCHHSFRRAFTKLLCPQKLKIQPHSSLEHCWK
Histamine H3 receptor (Rattus norvegicus, UniProt Q9QYN8), sequence (Q9QYN8 whole entry): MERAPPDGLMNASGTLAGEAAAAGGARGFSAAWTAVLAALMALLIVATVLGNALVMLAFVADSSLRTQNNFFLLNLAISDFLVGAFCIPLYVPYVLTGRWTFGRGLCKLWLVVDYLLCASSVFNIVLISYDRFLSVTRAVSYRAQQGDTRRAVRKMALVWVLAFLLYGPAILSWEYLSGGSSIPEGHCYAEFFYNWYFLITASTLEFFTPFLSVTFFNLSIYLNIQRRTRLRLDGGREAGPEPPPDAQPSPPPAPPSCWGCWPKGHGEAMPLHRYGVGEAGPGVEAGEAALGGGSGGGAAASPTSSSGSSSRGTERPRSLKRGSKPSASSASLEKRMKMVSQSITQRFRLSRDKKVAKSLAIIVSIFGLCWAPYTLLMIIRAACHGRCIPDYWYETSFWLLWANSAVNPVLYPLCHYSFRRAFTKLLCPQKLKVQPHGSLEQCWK

Row | SMILES | Activity [1] [%] | Ki [2] [nM] | other results
1 | CN(C)Cc1cc(OCCCCl)ccc1Nc1ncnc2ccccc12 | 49 | – | –
2 | COC(=O)c1ccc(COc2ccc(Nc3ncnc4ccccc34)c(CN(C)C)c2)cc1 | 31 | – | –
3 | CN(C)CCCOc1ccc(OCc2ccccc2Cl)c(CN(C)C)c1 | – | 135 | –
4 | CN(C)C(=O)c1cc(OC2CCCCO2)ccc1OCc1ccccc1Cl (stereo unspecified) | 17 | – | –
5 | CN(C)Cc1cc(O)ccc1Nc1ncnc2ccccc12 | 11.6 | – | –
6 | CN(C)C(=O)c1cc(OCc2ccc(F)cc2)ccc1OCc1ccccc1Cl | 33 | – | –
7 | CN(C)CCCOc1ccc(Oc2ncnc3ccccc23)c(C(=O)N(C)C)c1 | – | 1020 | –
8 | CN(C)Cc1cc(OCCCN2CCCCC2)ccc1Nc1ncnc2ccccc12 | – | 0.3 | EC50 [3]: 0.2 nM; Activity [4]: -2.5%; Ki [5]: 9.8 nM; Activity [6]: 2.4%
9 | CC(C)N1CCC(Oc2ccc(OCc3ccccc3Cl)c(CN(C)C)c2)C1 (stereo unspecified) | – | 88 | –
10 | COc1ccccc1COc1ccc(OCCCN2CCOCC2)cc1C(=O)N(C)C | 73.4 | 1390 | –
11 | CN(C)Cc1cc(OCCCN2CCCCC2)ccc1OCc1ccccc1Cl | – | 2.4 | –
12 | COc1ccccc1COc1ccc(OCCCN2CCCCC2)cc1C(=O)N(C)C | – | 12 | –
13 | CN(C)CCCOc1ccc(Nc2ncnc3ccccc23)c(CN(C)C)c1 | – | 18 | Activity [4]: -15%; Activity [6]: -2%
14 | CN(C)Cc1cc(OCC2CCCN(C)C2)ccc1OCc1ccccc1Cl (stereo unspecified) | – | 150 | –
15 | CN(C)C(=O)c1cc(OCCCN2CCOCC2)ccc1OCc1ccccc1Cl | – | 1100 | –
16 | CN(C)C(=O)c1cc(OCCCN2CCCCC2)ccc1OCc1ccccc1Cl | – | 47 | Activity [4]: 8%
17 | CCOC(=O)CCCOc1ccc(Nc2ncnc3ccccc23)c(CN(C)C)c1 | 28 | – | –
18 | CN(C)C(=O)c1cc(OCCC2CCCN2C)ccc1OCc1ccccc1Cl (stereo unspecified) | – | 1810 | –
